Reference: PubChem BioAssay (NCI)
Values joined by “and” are separate entries in the source; they are usually repeats but may differ in a detail not shown here. Equal values may be shown once.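 Method: 48-hour compound exposure of cells in 96-well plates, five concentrations, linear interpolation of endpoints. Abbreviation: GI50, concentration required for 50% inhibition of growth. At the TGI there is no net growth.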 Numbered stars: 1 amine (or outer) side, 2 acyl side, 3 side chain; on linkers, the order of the positions; unused ones are H or OH. Bridge positions count the residues as written; N and C are the ends. Square brackets hold non-standard residues; d marks the D form. Peptide text beside a SMILES is read from it. I, II: the chains in the order shown. Actinocin(1to9) = Cc1c2oc3c(C)ccc(C(=O)[*:2])c3nc-2c(C(=O)[*:1])c(N)c1=O; NMeV = CN[CH](C(=O)O)C(C)C; Sar = CNCC(=O)O

Tests used:
Experiment in all cases: growth of human tumour cells (NCI), 48 h
[1] = tested on: SK-MEL-28 melanoma
[2] = tested on: BT-549 breast
[3] = tested on: MOLT-4 leukemia
[4] = tested on: HL-60(TB) leukemia
[5] = tested on: MDA-MB-435
[6] = tested on: DU-145 prostate
[7] = tested on: K-562 leukemia
[8] = tested on: SNB-75 CNS
[9] = tested on: PC-3 prostate
[10] = tested on: 786-0 renal
[11] = tested on: U251 CNS
[12] = tested on: IGROV1 ovarian
[13] = tested on: OVCAR-5 ovarian
[14] = tested on: SF-539 CNS
[15] = tested on: HCC-2998 colon
[16] = tested on: CAKI-1 renal
[17] = tested on: UO-31 renal
[18] = tested on: T-47D breast

Structure (SMILES)	TGI [1] [µM]	TGI [2] [µM]	TGI [3]	TGI [4] [µM]	TGI [5] [µM]	TGI [6] [µM]	TGI [7] [µM]	TGI [8] [µM]	TGI [9]	TGI [10]	TGI [11] [µM]	TGI [12] [µM]	TGI [13] [µM]	TGI [14] [µM]	TGI [15] [µM]	TGI [16] [µM]	TGI [17] [µM]	TGI [18] [µM]	GI50 [8]
CCC(C)C1NC(=O)C(NC(=O)c2c3nc4c(C(=O)NC5C(=O)NC(C(C)C)C(=O)N6CCCC6C(=O)N(C)CC(=O)N(C)C(C(C)C)C(=O)OC5C)ccc(C)c4oc-3c(C)c(=O)c2N)C(C)OC(=O)C(C(C)C)N(C)C(=O)CN(C)C(=O)C2CCCN2C1=O (stereo unspecified) (I: TIP[Sar][NMeV] / II: TVP[Sar][NMeV]; ester I:1-I:C, II:1-II:C; linker I:N-II:N via Actinocin(1to9); configuration not given here)	0.0409	0.0627	0.0667 µM and 0.0163 µM	0.163	0.0302	0.71	0.105	0.579	0.0947 µM and 0.0301 µM	0.141 µM and 0.669 µM	10.1	0.906	0.0132	0.107					
Cc1ccccc1NC(=O)CC(=O)n1nc(-c2ccccc2)c(N=Nc2ccc([N+](=O)[O-])cc2)c1-c1ccccc1	96.9		64.8 µM	60.5			48.9	> 100		67.1 µM	34.6	> 100	> 100	52	51.3	40.4	34.8		
Cc1cccc2c(=O)c3c(O)cc4c(c3n(C)c12)C=CC(C)(C)O4	> 100	> 100	> 100 µM	> 100	> 100	> 100	48	> 100	> 100 µM	> 100 µM	> 100	> 100	> 100	> 100	> 100	> 100			
CCCCn1c2c(n(CCCC)c1=[Se])-c1c(n(CCCC)c(=[Se])n1CCCC)S[Se][Se]S2	> 100	> 92.5	> 90.6 µM		> 100	63.4	> 66.9	44.7	34.7 µM	> 72.6 µM	32.2	18.5	47.6	42.8	> 100	17.7	> 44.2		
C/C(CC(O)(C(F)(F)F)C(F)(F)F)=N/Nc1ccc([N+](=O)[O-])cc1[N+](=O)[O-]	> 10		> 10 µM	7.94	> 10	> 10	9.56	> 10	> 10 µM	> 10 µM	> 10	> 10		> 10	> 10	> 10	> 10	8.37	
CC(=O)c1cccc(NC(=O)/C(=N\NC(=S)NN)C2C(=O)Nc3ccccc3S2=O)c1 (stereo unspecified)	> 100	> 100	> 100 µM	> 100	> 100		> 100	> 100	> 100 µM	> 100 µM	> 100	> 100	> 100	> 100		> 100	> 100	> 100	
CCOC(=O)C1C(=O)c2cccc(OC)c2C2COC(=O)N12 (stereo unspecified)	> 100		> 100 µM	> 100			> 100	> 100		> 100 µM	> 100	> 100	> 100	> 100	> 100		> 100		
NCCSc1nc(N)c2ncn(C3OC(CO)C(O)C3O)c2n1 (stereo unspecified)	> 100		> 100 µM	> 100			> 100	> 100		> 100 µM	> 100	> 100	> 100	> 100	> 100	> 100	> 100		
COc1ccc(-c2cc(-c3ccccc3)nc(N)n2)c(O)c1	> 100	> 29.3	> 100 µM	> 20.6	> 100		> 22.9	> 100	> 100 µM	> 100 µM	> 100	> 100	> 100	> 100	> 100		> 23.3	> 100	
Cc1ccc(S(=O)(=O)N/N=C2\CC3C4CCC3C2C4)cc1 (stereo unspecified)	> 100		> 100 µM	> 100	> 100	> 100	> 100	> 100	> 100 µM	> 100 µM	> 100	> 100	> 100	> 100	> 100	> 100	> 100	> 100	
Nc1nc2c(ncn2CC(CO)CC(c2ccccc2)P(=O)(O)O)c(=O)[nH]1 (stereo unspecified)	> 100		> 100 µM	> 100			> 100	> 100		> 100 µM	> 100	> 100	> 100	> 100	> 100	> 100	> 100		13.2 µM and > 100 µM
C=[N+](CNC(=O)CNC(=O)C(Cc1ccccc1)NC(=O)OC(C)(C)C)C(=O)CNC(=O)C(Cc1ccccc1)NC(=O)OC(C)(C)C (stereo unspecified)	> 100		> 100 µM		> 100	> 100	> 100	> 100	> 100 µM	> 100 µM		> 100	> 100	> 100	> 100	> 100	> 100	> 100	
CCOC(=O)C(C(=O)OCC)C(NC(=O)Nc1cc(C(F)(F)F)ccc1OC)(C(F)(F)F)C(F)(F)F	> 100		68.6 µM	48.9	43.8	> 100	74.5		> 100 µM	55.8 µM	59.1	96.9	> 100	36.2	85	91.5	39.5	> 100	
CC1CC/C(=C\c2ccc(F)cc2)C2=C1C(c1ccc(F)cc1)n1c(s/c(=C\c3ccc(Cl)cc3)c1=O)=N2 (stereo unspecified)	> 100		> 100 µM	> 100	> 100	> 100	> 100		> 100 µM	> 100 µM	> 100	> 100	> 100			> 100			
